This passage reports EC50 results from patent publication EP4596574A1, “GLP-1/GCG/GIP TRIPLE-RECEPTOR AGONIST AND USE THEREOF” (Sunshine Lake Pharma Co., Ltd., priority 2022, dated 2024).

As a reminder, the EC50 is the concentration that produces a half-maximal response.

What all share (assay type): cell-based
For one assay, the target named is T1, GLP-1R (Homo sapiens, UniProt P43220).
T1 construct: expressed in transfected cells; host or cells: HEK293 (HEK293-GLP-1R)
Nature of the assay: In vitro cell activity, cAMP production in HEK293 cells expressing GLP-1R. Particulars: HEK293-GLP-1R cells, cAMP; read-out: GLP-1R (EC50). Here is the method: (§1) After they were completely thawed within 1.5 minutes, the cells were added dropwise into a 15 mL centrifuge tube containing 8 mL of warm culture medium in a clean bench. The tubes were centrifuged at 900 rpm for 5 minutes, the supernatant was discarded, and the cells were resuspended in 1 mL of complete culture medium (by pipetting 15 times). 20 µL of the suspension was immediately taken and mixed with an equal volume of trypan blue. 20 µL was taken to count the number of live cells, and the cells were diluted to 4×10^5 cells/mL with complete culture medium. • 4) The 384-well plate was divided into GLP-1R cell, GCGR cell and GIPR cell areas. The cell suspension was added to the wells of the corresponding area at 5 µL per well using a 12-channel variable-channel adjustable dispenser. […] Then, the diluted cAMP-d2 working solution and anti-cAMP-crytate working solution were mixed evenly in a ratio of 1:1, and 10 µL was added to each well of the sample group. The wells were covered with white lids and placed at room temperature in the dark for 1 hour or at 4 °C overnight. • 6) The fluorescence values at 665 nm and 620 nm were detected in a multifunctional microplate reader. In GraphPad Prism 6, the signal ratio and sample concentration were nonlinearly fitted using a four-parameter equation to obtain the EC50 value.

A further assay concerns the target T2, GIPR (Homo sapiens, UniProt P48546).
T2 construct: expressed in transfected cells; host or cells: HEK293 (HEK293-GIPR)
T2 sequence (P48546 22-466): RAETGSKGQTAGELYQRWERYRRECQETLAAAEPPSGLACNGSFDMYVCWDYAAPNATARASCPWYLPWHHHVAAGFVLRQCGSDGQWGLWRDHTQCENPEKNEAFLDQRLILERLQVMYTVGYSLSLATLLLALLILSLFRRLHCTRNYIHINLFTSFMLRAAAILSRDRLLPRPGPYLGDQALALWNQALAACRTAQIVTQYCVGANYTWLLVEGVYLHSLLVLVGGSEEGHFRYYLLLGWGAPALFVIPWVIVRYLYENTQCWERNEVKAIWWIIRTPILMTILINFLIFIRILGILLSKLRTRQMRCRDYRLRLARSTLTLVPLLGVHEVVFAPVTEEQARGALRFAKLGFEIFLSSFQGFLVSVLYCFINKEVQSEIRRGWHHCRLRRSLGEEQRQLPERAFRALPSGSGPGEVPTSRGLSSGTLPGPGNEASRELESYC
Description: In vitro cell activity, cAMP production in HEK293 cells expressing GIPR. The note with it: HEK293-GIPR cells, cAMP; read-out: GIPR (EC50). Here is the method:
as §1, with “The wells were covered with white lids and placed at room temperature in the dark for 1 hour or at 4 °C overnight. • 6) The fluorescence values at 665 nm and 620 nm were detected in a multifunctional microplate reader.” left out

Another assay concerns the target T3, GCGR (Homo sapiens, UniProt P47871).
T3 construct: expressed in transfected cells; host or cells: HEK293 (HEK293-GCGR)
Nature of the assay: In vitro cell activity, cAMP production in HEK293 cells expressing GCGR. Particulars: HEK293-GCGR cells, cAMP; read-out: GCGR (EC50). Here is the method:
as §1

The structures appear in SMILES notation. Starred links: 1 amine or outer side, 2 acyl side, 3 side chain; linkers in the order of their positions; H or OH if unused. Non-standard residues stand in square brackets, D forms with d. Residues, ends and D or L forms follow the SMILES beside them. Groups on a side chain read outwards from the residue. *: point of attachment. C20 diacid = O=C(O)CCCCCCCCCCCCCCCCCCC(=O)*; αMePhe(2-F) = C[C@](N)(Cc1ccccc1F)C(=O)O; γGlu = O=C(O)[C@H](CCC(=O)[*:2])N[*:1]; AEEA = NCCOCCOCC(=O)O; Aib = CC(C)(N)C(=O)O

T3 sequence (P47871 26-477, species assumed): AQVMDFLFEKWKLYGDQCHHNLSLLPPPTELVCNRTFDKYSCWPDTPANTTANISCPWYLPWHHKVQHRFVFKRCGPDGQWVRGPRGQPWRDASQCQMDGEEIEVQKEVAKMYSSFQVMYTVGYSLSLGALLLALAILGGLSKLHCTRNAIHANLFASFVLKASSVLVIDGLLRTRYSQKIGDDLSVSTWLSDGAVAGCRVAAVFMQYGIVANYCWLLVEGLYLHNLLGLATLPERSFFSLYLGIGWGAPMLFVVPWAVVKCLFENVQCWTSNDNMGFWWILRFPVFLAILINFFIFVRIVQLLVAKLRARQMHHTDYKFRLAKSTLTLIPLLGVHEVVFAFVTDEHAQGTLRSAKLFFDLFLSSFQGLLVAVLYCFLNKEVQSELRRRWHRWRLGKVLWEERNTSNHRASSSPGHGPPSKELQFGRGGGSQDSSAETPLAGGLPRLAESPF
T1 sequence (P43220 24-463, species assumed): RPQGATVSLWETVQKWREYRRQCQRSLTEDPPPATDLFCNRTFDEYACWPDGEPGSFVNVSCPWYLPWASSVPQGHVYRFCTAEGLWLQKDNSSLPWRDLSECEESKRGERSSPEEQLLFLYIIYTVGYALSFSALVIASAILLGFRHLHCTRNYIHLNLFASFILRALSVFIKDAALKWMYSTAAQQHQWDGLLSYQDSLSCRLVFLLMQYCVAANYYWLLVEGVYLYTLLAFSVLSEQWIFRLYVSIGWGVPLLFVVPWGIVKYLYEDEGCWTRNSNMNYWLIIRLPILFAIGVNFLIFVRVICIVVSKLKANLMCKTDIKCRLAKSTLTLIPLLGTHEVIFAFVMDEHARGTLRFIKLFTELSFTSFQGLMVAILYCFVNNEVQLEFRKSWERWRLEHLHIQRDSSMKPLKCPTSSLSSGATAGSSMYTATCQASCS

On to `CC[C@H](C)[C@H](NC(=O)[C@H](CC(C)C)NC(=O)[C@H](Cc1c[nH]c2ccccc12)NC(=O)[C@H](CCC(=O)O)NC(=O)[C@@H](NC(=O)[C@H](Cc1ccccc1)NC(=O)[C@H](CC(=O)O)NC(=O)[C@H](CCC(N)=O)NC(=O)[C@H](CCC(N)=O)NC(=O)[C@H](C)NC(=O)[C@H](CCCCNC(=O)COCCOCCNC(=O)CC[C@H](NC(=O)CCCCCCCCCCCCCCCCCCC(=O)O)C(=O)O)NC(=O)[C@H](CCC(=O)O)NC(=O)[C@H](CC(=O)O)NC(=O)[C@H](CC(C)C)NC(=O)[C@H](CC(C)C)NC(=O)[C@@H](NC(=O)[C@H](CO)NC(=O)[C@H](Cc1ccc(O)cc1)NC(=O)[C@H](CC(=O)O)NC(=O)[C@H](CO)NC(=O)[C@@H](NC(=O)[C@](C)(Cc1ccccc1F)NC(=O)[C@@H](NC(=O)CNC(=O)[C@H](CCC(N)=O)NC(=O)C(C)(C)NC(=O)[C@@H](N)Cc1ccc(O)cc1)[C@@H](C)O)[C@@H](C)O)[C@@H](C)CC)[C@@H](C)CC)C(=O)N[C@@H](C)C(=O)NCC(=O)NCC(=O)N1CCC[C@H]1C(=O)N[C@@H](CO)C(=O)N[C@@H](CO)C(=O)NCC(=O)N[C@@H](C)C(=O)N1CCC[C@H]1C(=O)N1CCC[C@H]1C(=O)N1CCC[C@H]1C(=O)N[C@@H](CO)C(=O)O` [HEC-PT69], for which the EC50 on GLP-1R was determined as 2180 pM; at GIPR, 419 pM; on GCGR, 30800 pM.
Turning to `CC[C@H](C)[C@H](NC(=O)[C@H](CC(C)C)NC(=O)[C@H](Cc1c[nH]c2ccccc12)NC(=O)[C@H](CCC(=O)O)NC(=O)[C@@H](NC(=O)[C@H](Cc1ccccc1)NC(=O)[C@H](CCC(=O)O)NC(=O)[C@H](CCCCNC(=O)COCCOCCNC(=O)COCCOCCNC(=O)CC[C@H](NC(=O)CCCCCCCCCCCCCCCCCCC(=O)O)C(=O)O)NC(=O)[C@H](C)NC(=O)[C@H](C)NC(=O)[C@H](CCCNC(=N)N)NC(=O)[C@H](CCC(=O)O)NC(=O)[C@H](CC(=O)O)NC(=O)[C@H](CC(C)C)NC(=O)[C@H](CC(C)C)NC(=O)[C@@H](NC(=O)[C@H](CO)NC(=O)[C@H](Cc1ccc(O)cc1)NC(=O)[C@H](CC(=O)O)NC(=O)[C@H](CO)NC(=O)[C@@H](NC(=O)[C@](C)(Cc1ccccc1F)NC(=O)[C@@H](NC(=O)CNC(=O)[C@H](CCC(N)=O)NC(=O)C(C)(C)NC(=O)[C@@H](N)Cc1ccc(O)cc1)[C@@H](C)O)[C@@H](C)O)[C@@H](C)CC)[C@@H](C)CC)C(=O)N[C@@H](C)C(=O)NCC(=O)NCC(=O)N1CCC[C@H]1C(=O)N[C@@H](CO)C(=O)N[C@@H](CO)C(=O)NCC(=O)N[C@@H](C)C(=O)N1CCC[C@H]1C(=O)N1CCC[C@H]1C(=O)N1CCC[C@H]1C(=O)N[C@@H](CO)C(=O)O` [HEC-PT71] (H-Y[Aib]QGT[αMePhe(2-F)]TSDYSILLDERAAK([AEEA-AEEA-γGlu-C20 diacid])EFIEWLIAGGPSSGAPPPS-OH), the results for the EC50 at GLP-1R, at GIPR and at GCGR were 336 pM, 464 pM and 5390 pM, respectively.
As to `CC[C@H](C)[C@H](NC(=O)[C@H](Cc1ccccc1)NC(=O)[C@H](C)NC(=O)[C@H](CCC(N)=O)NC(=O)[C@H](CCC(N)=O)NC(=O)[C@H](C)NC(=O)[C@H](CCCCNC(=O)COCCOCCNC(=O)CC[C@H](NC(=O)CCCCCCCCCCCCCCCCCCC(=O)O)C(=O)O)NC(=O)[C@H](CCC(=O)O)NC(=O)[C@H](CC(=O)O)NC(=O)[C@H](CC(C)C)NC(=O)[C@H](CC(C)C)NC(=O)[C@@H](NC(=O)[C@H](CO)NC(=O)[C@H](Cc1ccc(O)cc1)NC(=O)[C@H](CC(=O)O)NC(=O)[C@H](CO)NC(=O)[C@@H](NC(=O)[C@](C)(Cc1ccccc1F)NC(=O)[C@@H](NC(=O)CNC(=O)[C@H](Cc1c[nH]cn1)NC(=O)C(C)(C)NC(=O)[C@@H](N)Cc1ccc(O)cc1)[C@@H](C)O)[C@@H](C)O)[C@@H](C)CC)C(=O)N[C@@H](CCC(=O)O)C(=O)N[C@@H](Cc1ccc(O)cc1)C(=O)N[C@@H](CC(C)C)C(=O)N[C@@H](CC(C)C)C(=O)N[C@@H](C)C(=O)NCC(=O)NCC(=O)N1CCC[C@H]1C(=O)N[C@@H](CO)C(=O)N[C@@H](CO)C(=O)NCC(=O)N[C@@H](C)C(=O)N1CCC[C@H]1C(=O)N1CCC[C@H]1C(=O)N1CCC[C@H]1C(=O)N[C@@H](CO)C(=O)O` [HEC-PT81], the EC50 on GLP-1R was determined as 409 pM; at GIPR, 132 pM; on GCGR, 382 pM.
